Experimental data taken from a melting point compilation (Tetko et al.; mined from patent text by program, amines drawn as free bases though some values may be those of a salt).

| melting point [°C] | SMILES |
| --- | --- |
| 174 to 175 | Cc1ccc(COc2cccnc2NC(=N)Nc2ccc(Cl)cc2)cc1 |
| 156 to 157 | COc1cc(OC)c2c(=O)[nH]c(-c3ccc(OCCNC(C)C)c(-c4cccc(S(C)=O)c4)n3)nc2c1 (configuration not stated) |
| 81 | NS(=O)(=O)c1ccc(-c2c(-c3ccccc3)noc2COCCS(=O)(=O)CCO)cc1 |
| 116 to 118 | OC1(CC2CO2)c2ccccc2CCc2ccccc21 (configuration not stated) |
| 173 to 175 | COc1cn(C)cc(-c2cccc(C(F)(F)F)c2)c1=O |
| 179 to 181 | CC(C)CNC(=O)NS(=O)(=O)c1ccc(CCNC(=O)N2CCCCC2=O)cc1 |
| 110 to 114 | COCCOc1ccc(CCCNS(=O)(=O)c2cccc(Cl)c2)c(Oc2ncc(C(F)(F)F)cc2Cl)c1 |
| 145 to 147 | CCCc1cc(NCc2ccc3c(c2)OCO3)nc(SCC(N)=NO)n1 |
| 196 to 199 | COc1cccc(Cc2cc3cccc(-c4cccc(C(=O)Nc5ccc(F)nc5)c4)c3o2)c1 |
| 154 to 155 | COc1cccc(C2(O)c3c(C)c(NC(=O)CC(C)(C)C)c(C)c(C)c3OC2(C)C)c1 (configuration not stated) |
| 98 to 100 | O=C(O)Cc1ccc(Oc2ccc(Cl)cc2)cc1 |
| 174 to 180 | Nc1cccc(C(=O)CN2CCN(c3ccc(CO)c(Cl)c3)CC2)c1 |
| 103 to 104 | O=C(Nc1c(-c2ccccc2F)nnn1CSc1ccccc1)C(Cl)C1CCC1 (configuration not stated) |
| 170 to 175 | O=Cc1ccc2c(c1)C13CC2c2ccccc2C1CN(CC1CCCC1)C3 (configuration not stated) |
| 139 to 141 | CC(=O)Oc1c(C)c(C)c2c(c1C)C(O)CC(C)(COc1ccc([N+](=O)[O-])cc1)O2 (configuration not stated) |
| 252 to 257 | CCc1cc2oc3cc(-c4ccccc4Cl)c4c(c3c2cc1OC)C(=O)NC4=O |
| 109 to 113 | Cc1ccc2c(c1C)OC(C)C(NNc1ncnc3c1ncn3C1OC(CO)C(O)C1O)C2 (configuration not stated) |
| 161 to 162 | COc1cccc(C(=O)N2C(=O)CN(c3ccccc3)C2=O)c1 |

| melting point [°C] | SMILES |
| --- | --- |
| 190 to 196 | CCc1c(-c2ccccc2)c2c(c3c1[nH]c1ccc(O)cc13)C(=O)NC2=O |
| 138 to 142 | CCC12CCC3C4CCC(=O)C=C4CCC3C1CCC2C(C)=O (configuration not stated) |
| 107 to 109 | OCC1CCc2[nH]c3ccc(F)cc3c2C1 (configuration not stated) |
| 155 to 157 | CCn1cc2c(n1)c(Cl)nc1cc(OCc3ccccc3)ccc12 |
| 162 to 164 | CC(C)(Nc1ccc(Cl)cc1[N+](=O)[O-])C(=O)O |
| 220 | O=C(NC(Cc1ccc(OCc2ccoc2)cc1)C(=O)O)c1cn2nc(-c3ccc(Cl)cc3)ccc2n1 (configuration not stated) |
| 240 to 242 | COc1cc(Cc2cnc(NC=O)nc2N)cc(OC)c1OC |
| 102 | CCN(CC)C(=O)COc1nc(-c2ccccc2)cc2ccccc12 |
| 67 to 69 | CCOC1=CC(C)=C(C(=O)OC)C(C)(C)C1 |
| 157 to 159 | CC(C)[C@H](NC(=O)Cc1csc(N(C)C)n1)C(=O)N[C@@H](Cc1ccccc1)[C@@H](O)C[C@H](Cc1ccccc1)NC(=O)OCc1cncs1 |
| 160 to 170 | O=C(O)CCC(Cc1ccccc1)(C(=O)C=Cc1ccc(Cl)cc1)c1ccccc1 (configuration not stated) |
| 127 to 131 | Cc1cc(C(C)(C)C)cc(CN)c1S |
| 175 | COc1ccc2c(c1)c1c(n2-c2ccccc2)C(=O)CO1 |
| 237 to 239 | Cc1c(F)c(Br)cc2c1c(=O)c(C(=O)O)cn2C1CC1 |
| 143 | COC(=O)C(Oc1nc(C)cc(OC)n1)C(OCC(C)(C)C(=O)OC)(c1ccccc1)c1ccccc1 (configuration not stated) |
| 192 | CNc1ccc(N2CCOC2=O)cc1[N+](=O)[O-] |
| 101 to 103 | COC(=O)COc1ccc(C(C)=O)c(O)c1 |
| 157 to 159 | N#Cc1cc(CCNc2ncnc3c(F)ccc(F)c23)ccc1Oc1cc(C(F)(F)F)ccn1 |

| SMILES | melting point [°C] |
| --- | --- |
| Cc1ccc(S(=O)(=O)N2Cc3cnc(C)n3-c3ccc(Cl)cc3C2c2ccccc2F)cc1 (configuration not stated) | 152 to 153 |
